Consider 1 molecule from patent US20230313199A1, “TARGET FOR MODULATING BODY MASS” (Massachusetts Institute of Technology, priority 2020, published 2023).

For assay [1], the target named is T1, MFSD7C interactions with ETC components (CYC1, NDUFA4, COX4i1, ATP5h, ATP5c1) (Mus musculus, UniProt Q91X85).
T1 construct: expressed in transfected cells; host or cells: 293FT cells
The assay can be described thus: Co-IP of HA-tagged MFSD7C with FLAG-tagged ETC components in transfected 293FT cells. In kind it is cell-based, murine. The settings on record: 10 μM or 40 μM heme for one hour before cell lysis, increasing level. The protocol: Co-transfection and immunoprecipitation. For co-IP, HA-tagged MFSD7C was co-transfected with FLAG-tagged HMOX1 (Origene Catalog No. MR203944), CYC1, COX4I1, NDUFA4, ATP5h, ATP5c1 into 293FT cells using TransIT®-LT1 Transfection Reagent (Mirus). Thirty-six hours after transfection, the cells were lysed using cold Lysis Buffer containing 20 mM Tris-HCl (pH 7.4), 150 mM NaCl, 0.1% NP-40, 10% glycerol, proteinase inhibitor (Sigma Catalog No. 4693132001), and phosphatase inhibitors (Sigma Catalog No. 4906845001). The clear supernatants from the lysate were incubated with M2-magnetic beads conjugated with anti-FLAG antibody (Sigma Catalog No. M8823) for 2 hours at 4° C. Then the beads were washed twice and eluted by the 3× FLAG peptides (Sigma Catalog No. F4799).
To determine the effect of heme on MFSD7C interactions with ETC components, HMOX1 or SERCA2b, 293FT cells were transiently transfected with HA-tagged murine MFSD7C and FLAG-tagged murine CYC1, NDUFA4, COX4i1, ATP5h, ATP5c1, HMOX1 or SERCA2b. 35 hrs later, co-transfected cells were incubated with DMSO (vehicle) or 10 μM or 40 μM of heme for one hour before lysis. Cell lysates were precipitated with anti-HA antibody, eluted with HA peptide, further precipitated with anti-FLAG antibody, eluted with FLAG peptide, and then subjected to Western blotting with anti-HA and anti-FLAG antibodies. […]

For a further assay, the system named is 4B8^FL cells. As to the kind of experiment: OCR and ECAR (Seahorse) in 4B8 cells complemented with full length MFSD7C. It is filed as cell-based, human. The settings on record: heme 1 hour. The protocol:
FIGS. 4A-4H show NTD of MFSD7C mediates heme effect on mitochondrial respiration. FIGS. 4A-4C show comparison of basal OCR (FIG. 4A), maximal OCR (FIG. 4B) and ECAR (FIG. 4C) of THP-1, 4B8, and 4B8^FL and 4B8^ΔN cells treated with vehicle or heme for 1 hour (n=18 separate experiments). […] Cells were incubated with FPT for 6 hrs, washed and reseeded in poly-lysine coated glass bottom dishes. After cells attached to the glass, medium containing 40 μM heme was added. Cells in the same field were imaged immediately and again 1 hour later. Relative FPT fluorescent intensities, normalized to THP-1, from three experiments are shown. (n=3 independent experiments). […] THP-1, 4B8, 4B8^FL and 4B8^ΔN cells were treated with vehicle or heme for 1 hour and MMP was measured by using JC-10 Mitochondrial Membrane Potential Assay Kit followed by flow cytometry. […] Shown are representative Western blotting data (FIG. 4G) and quantification of band intensities from n=3 independent experiments (FIG. 4H). P-values were calculated using two-way ANOVA (*p<0.05, **p<0.01, ***p<0.005). […]
Measurements of OCR, ECAR, and MMP. Oxygen consumption rate (OCR) and extracellular acidification rate (ECAR) were measured using XF96e Seahorse Extracellular Flux Analyzer per manufacturer's protocol. […]

Assay [2] relates to interactions between MFSD7C^ΔN and CYC1, NDUFA4, COX4i1, ATP5h and ATP5c1. As to the kind of experiment: Co-IP of HA-tagged MFSD7C^ΔN with ETC components. In kind it is cell-based, murine. The settings on record: heme treatment before lysis. The protocol: FIGS. 4A-4H show NTD of MFSD7C mediates heme effect on mitochondrial respiration. FIGS. 4A-4C show comparison of basal OCR (FIG. 4A), maximal OCR (FIG. 4B) and ECAR (FIG. 4C) of THP-1, 4B8, and 4B8^FL and 4B8^ΔN cells treated with vehicle or heme for 1 hour (n=18 separate experiments). […] Cells were incubated with FPT for 6 hrs, washed and reseeded in poly-lysine coated glass bottom dishes. After cells attached to the glass, medium containing 40 μM heme was added. Cells in the same field were imaged immediately and again 1 hour later. Relative FPT fluorescent intensities, normalized to THP-1, from three experiments are shown. (n=3 independent experiments). […] THP-1 cells were co-cultured with 4B8, 4B8^FL, or 4B8^ΔN in FPT solution for 6 hrs, washed and reseeded in poly-lysine coated glass bottom dishes. Cells were imaged by confocal laser-scanning microscopy. […] Representative images from three experiments are shown. Scale bar: 10 μm. […] THP-1, 4B8, 4B8^FL and 4B8^ΔN cells were treated with vehicle or heme for 1 hour and MMP was measured by using JC-10 Mitochondrial Membrane Potential Assay Kit followed by flow cytometry. […] Shown are representative Western blotting data (FIG. 4G) and quantification of band intensities from n=3 independent experiments (FIG. 4H). P-values were calculated using two-way ANOVA (*p<0.05, **p<0.01, ***p<0.005). […]

The next assay has as its system MCF7 cells. The assay can be described thus: Oxygen consumption rate, parental MCF7 cells. It is filed as cell-based, human. The settings on record: 40 μM heme for 1 hour.

T1 sequence (Q91X85 whole entry): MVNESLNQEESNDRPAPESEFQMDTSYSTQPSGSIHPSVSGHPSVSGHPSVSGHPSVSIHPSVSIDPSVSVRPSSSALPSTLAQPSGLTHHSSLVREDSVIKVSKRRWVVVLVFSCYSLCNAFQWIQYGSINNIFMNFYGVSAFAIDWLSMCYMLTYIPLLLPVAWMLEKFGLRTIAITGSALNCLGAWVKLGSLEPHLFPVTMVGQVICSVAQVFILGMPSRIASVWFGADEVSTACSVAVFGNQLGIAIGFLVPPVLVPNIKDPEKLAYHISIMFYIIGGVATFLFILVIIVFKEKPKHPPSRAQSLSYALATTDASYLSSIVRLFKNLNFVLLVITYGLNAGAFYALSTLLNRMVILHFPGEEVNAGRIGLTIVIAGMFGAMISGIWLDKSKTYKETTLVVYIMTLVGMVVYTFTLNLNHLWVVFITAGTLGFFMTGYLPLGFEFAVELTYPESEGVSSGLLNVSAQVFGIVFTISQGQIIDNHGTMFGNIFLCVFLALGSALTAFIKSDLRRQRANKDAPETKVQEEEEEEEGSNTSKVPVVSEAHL

Regarding `C=CC1=C(C)c2cc3[n-]c(cc4[n-]c(cc5nc(cc1n2)C(C)=C5C=C)c(C)c4CCC(=O)O)c(CCC(=O)O)c3C.[Fe+2]` [heme], the “ETC components co-precipitated with MFSD7C” value in assay [1] is listed as “less or very little ETC components co-precipitated with MFSD7C”. Further, in the assay with 4B8^FL cells, the ECAR result was “increased”. For the same molecule, the OCR result in the assay on 4B8^FL cells was “increased”; with MCF7 cells, “significantly stimulated”. The “disruption of interactions between MFSD7C^ΔN and ETC components (co-IP)” value in assay [2] is “failed to disrupt”.
